The values that follow come from ChEMBL document CHEMBL1149816, “Class II-selective histone deacetylase inhibitors. Part 2: alignment-independent GRIND 3-D QSAR, homology and docking studies” (Eur J Med Chem, 2008).

As usually defined, the pIC50 is the IC50 on a negative log10 scale, so that one unit is a factor of ten. A lower pIC50 goes with a high IC50.

Test [1] addresses Histone deacetylase HD1B (Zea mays, UniProt Q9ZTP8). Briefly: Inhibition of maize histone deacetylase 1B.
Test [2] can be described thus: Inhibition of maize histone deacetylase 1A. More on the design: species or system Zea mays.
Test [3] deals with Zea mays. Nature of the test: Selectivity for IC50 of maize histone deacetylase 1A over IC50 of maize histone deacetylase 1B.

Histone deacetylase HD1B, sequence (Q9ZTP8 whole entry): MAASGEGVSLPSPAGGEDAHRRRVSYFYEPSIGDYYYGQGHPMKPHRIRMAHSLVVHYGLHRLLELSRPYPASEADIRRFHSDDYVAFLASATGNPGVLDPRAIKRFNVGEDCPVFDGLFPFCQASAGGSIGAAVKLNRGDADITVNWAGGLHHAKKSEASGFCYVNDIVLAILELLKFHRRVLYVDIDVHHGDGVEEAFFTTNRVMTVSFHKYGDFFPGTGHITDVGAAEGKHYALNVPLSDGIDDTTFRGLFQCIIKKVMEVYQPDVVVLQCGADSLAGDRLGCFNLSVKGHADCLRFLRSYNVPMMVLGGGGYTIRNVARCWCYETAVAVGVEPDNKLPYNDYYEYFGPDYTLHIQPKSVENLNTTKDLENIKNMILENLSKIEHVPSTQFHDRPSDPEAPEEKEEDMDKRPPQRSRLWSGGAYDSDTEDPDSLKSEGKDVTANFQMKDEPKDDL

Consider `Cn1cc(/C=C/C(=O)c2ccco2)cc1/C=C/C(=O)NO`, for which the IC50 in test [1] (read-out: IC50) is 19700 nM; in test [2], 1200 nM. Besides, the Ratio IC50 in test [3] turned out to be 16.4.

`Cn1cc(/C=C/C(=O)c2ccc(Cl)c(Cl)c2)cc1/C=C/C(=O)NO`: in test [1] (read-out: IC50), the IC50 stood at 21300 nM. Besides, in test [2], the IC50 stood at 5900 nM and the pIC50 is reported as 5.229. For the same compound, the Ratio IC50 in test [3] amounted to 3.6.

As for `Cn1cc(/C=C/C(=O)c2ccc(Cl)cc2)cc1/C=C/C(=O)NO`, the values for the IC50 in test [1] (read-out: IC50) and in test [2] were 29400 nM and 18600 nM, respectively.

For `Cn1cc(/C=C/C(=O)c2ccc(F)c(F)c2)cc1/C=C/C(=O)NO`, the IC50 in test [1] (read-out: IC50) was determined as 13500 nM. In test [2], the IC50 is 2200 nM and the pIC50 was 5.658. Moreover, the Ratio IC50 in test [3] stood at 6.1.

For the compound `Cn1cc(/C=C/C(=O)c2ccc(Cl)cc2Cl)cc1/C=C/C(=O)NO`, the IC50 in test [1] (read-out: IC50) is 17000 nM. Besides, in test [2], the IC50 is 2800 nM and the pIC50 amounted to 5.523. The Ratio IC50 in test [3] was 6.1.

As to `Cn1cc(/C=C2\CCc3ccccc3C2=O)cc1/C=C/C(=O)NO`, the IC50 in test [1] (read-out: IC50) was 59000 nM; in test [1] (read-out: pIC50 (converted)), 807 nM; in test [2], 3400 nM. In addition, in test [2], the pIC50 was found to be 6.777. Besides, in test [3], the Ratio IC50 came out at 17.3.

For the compound `Cn1cc(/C=C/C(=O)c2ccc3c(c2)OCCO3)cc1/C=C/C(=O)NO`, the IC50 in test [1] (read-out: IC50) amounted to 621 nM. Also, in test [2], the IC50 was determined as 185 nM and the pIC50 is on record as 6.708. Moreover, in test [3], the Ratio IC50 is 3.4.

Take `Cn1cc(/C=C/C(=O)c2ccc(F)c(Cl)c2)cc1/C=C/C(=O)NO`: the results for the IC50 in test [1] (read-out: IC50), in test [1] (read-out: pIC50 (converted)) and in test [2] were 1400 nM, 621 nM and 500 nM, respectively. In test [2], this compound had a pIC50 of 6.733. The Ratio IC50 in test [3] came out at 2.8.

In the case of `Cn1cc(/C=C/C(=O)c2cccc(Br)c2)cc1/C=C/C(=O)NO`, the IC50 turned out to be 480 nM in test [1] (read-out: IC50) and 1600 nM in test [2].

`CC/C(=C\c1cc(/C=C/C(=O)NO)n(C)c1)C(=O)c1ccccc1`: the values for the IC50 in test [1] (read-out: IC50) and in test [2] were 4500 nM and 220 nM, respectively. Moreover, in test [3], the Ratio IC50 is 20.4.

Take `Cn1cc(/C=C/C(=O)c2ccccc2Br)cc1/C=C/C(=O)NO`: the results for the IC50 in test [1] (read-out: IC50) and in test [2] were 180 nM and 210 nM, respectively.

In the case of `Cn1cc(/C=C/C(=O)c2cc(F)cc(F)c2)cc1/C=C/C(=O)NO`, in test [1] (read-out: IC50), the IC50 is 23500 nM. In test [2], this compound had a pIC50 of 5.678. Moreover, the Ratio IC50 in test [3] is 11.2.

Turning to `Cn1cc(/C=C/C(=O)c2cc(F)ccc2F)cc1/C=C/C(=O)NO`, the IC50 in test [1] (read-out: IC50) was 16600 nM; in test [1] (read-out: pIC50 (converted)), 800 nM; in test [2], 800 nM. This compound returned a pIC50 in test [2] of 6.097. In addition, in test [3], the Ratio IC50 turned out to be 20.8.

`COc1ccccc1C(=O)/C=C/c1cc(/C=C/C(=O)NO)n(C)c1`: the results for the IC50 in test [1] (read-out: IC50) and in test [2] were 170 nM and 160 nM, respectively.

For `Cn1cc(/C=C/C(=O)c2c(F)cccc2F)cc1/C=C/C(=O)NO`, the IC50 in test [1] (read-out: IC50) is 807 nM; in test [1] (read-out: pIC50 (converted)), 17000 nM; in test [2], 167 nM. This compound also yielded a negative logarithm of the IC50 (pIC50) in test [2] of 5.553. In addition, the Ratio IC50 in test [3] is 4.8.

With `Cn1cc(/C=C/C(=O)c2ccccc2)cc1/C=C/C(=O)NO`, the figures for the IC50 in test [1] (read-out: IC50) and in test [2] were 260 nM and 190 nM, respectively.

For the compound `Cn1cc(/C=C/C(=O)c2cc3ccccc3o2)cc1/C=C/C(=O)NO`, the IC50 in test [1] (read-out: IC50) was 12000 nM; in test [1] (read-out: pIC50 (converted)), 59000 nM; in test [2], 3000 nM. The pIC50 in test [2] was 5.469. Also, the Ratio IC50 in test [3] was 4.

`Cn1cc(/C=C/C(=O)c2ccc(-c3ccccc3)cc2)cc1/C=C/C(=O)NO`: the figures for the IC50 in test [1] (read-out: IC50) and in test [2] were 31800 nM and 2200 nM, respectively. For the same compound, the Ratio IC50 in test [3] turned out to be 14.4.

On to `Cn1cc(/C=C/C(=O)c2ccc(Br)cc2)cc1/C=C/C(=O)NO`, for which the IC50 in test [1] (read-out: IC50) is 24300 nM; in test [2], 20300 nM. The Ratio IC50 in test [3] came out at 1.2.

`Cn1cc(/C=C/C(=O)c2cccs2)cc1/C=C/C(=O)NO`: the IC50 in test [1] (read-out: IC50) stood at 25800 nM; in test [2], 16300 nM. Further, the Ratio IC50 in test [3] turned out to be 1.6.

Regarding `Cn1cc(/C=C/C(=O)c2cccc(C(F)(F)F)c2)cc1/C=C/C(=O)NO`, the figures for the IC50 in test [1] (read-out: IC50) and in test [2] were 159000 nM and 9300 nM, respectively. In addition, the pIC50 in test [2] was found to be 5.032. Further, in test [3], the Ratio IC50 was 17.1.

Regarding `COc1ccc(C(=O)/C=C/c2cc(/C=C/C(=O)NO)n(C)c2)cc1`, the IC50 came to 800 nM in test [1] (read-out: IC50) and 790 nM in test [2].

As to `Cn1cc(/C=C/C(=O)c2cccc3ccccc23)cc1/C=C/C(=O)NO`, the IC50 is 330 nM in test [1] (read-out: IC50) and 10 nM in test [2]. The Ratio IC50 in test [3] is 33.

Regarding `Cn1cc(/C=C/C(=O)c2cccc(Cl)c2)cc1/C=C/C(=O)NO`, the IC50 in test [1] (read-out: IC50) came out at 31400 nM; in test [2] it was 440 nM. In test [3], the Ratio IC50 is 71.4.

On to `Cc1ccccc1C(=O)/C=C/c1cc(/C=C/C(=O)NO)n(C)c1`, for which the IC50 came to 390 nM in test [1] (read-out: IC50) and 60 nM in test [2]. Moreover, the Ratio IC50 in test [3] amounted to 6.5.

On to `Cc1ccc(C(=O)/C=C/c2cc(/C=C/C(=O)NO)n(C)c2)cc1`, for which the IC50 came to 4800 nM in test [1] (read-out: IC50) and 500 nM in test [2]. Besides, the Ratio IC50 in test [3] came out at 9.6.

With `Cn1cc(/C=C/C(=O)c2ccc3ccccc3c2)cc1/C=C/C(=O)NO`, the IC50 was 1800 nM in test [1] (read-out: IC50) and 40 nM in test [2]. Further, the Ratio IC50 in test [3] turned out to be 45.

In the case of `Cn1cc(/C=C/C(=O)c2cccc(F)c2)cc1/C=C/C(=O)NO`, the results for the IC50 in test [1] (read-out: IC50) and in test [2] were 38800 nM and 220 nM, respectively. In addition, the Ratio IC50 in test [3] was determined as 176.

For the compound `CC(/C=C/C(=O)NO)=C\[C@@H](C)C(=O)c1ccc(N(C)C)cc1` [TRICHOSTATIN], in test [2], the IC50 amounted to 0.8 nM.

Take `Cn1cc(/C=C/C(=O)c2ccc3c(c2)CCO3)cc1/C=C/C(=O)NO`: the values for the IC50 in test [1] (read-out: IC50) and in test [2] were 6400 nM and 2100 nM, respectively. In addition, the Ratio IC50 in test [3] was 3.

On to `Cn1cc(/C=C/C(=O)c2ccsc2)cc1/C=C/C(=O)NO`, for which the IC50 in test [1] (read-out: IC50) is 22600 nM; in test [2], 13800 nM. Also, the Ratio IC50 in test [3] was 1.6.

For `Cn1cc(/C=C/C(=O)c2cccc(OC(F)(F)F)c2)cc1/C=C/C(=O)NO`, in test [1] (read-out: IC50), the IC50 came to 298000 nM. Also, in test [2], the IC50 was 90000 nM and the pIC50 stood at 4.046. In test [3], the Ratio IC50 stood at 3.3.

As for `Cn1cc(/C=C/C(=O)c2ccccc2Cl)cc1/C=C/C(=O)NO`, the IC50 in test [1] (read-out: IC50) was found to be 1600 nM; in test [2] it was 50 nM. For the same compound, the Ratio IC50 in test [3] was 32.

On to `COc1cccc(C(=O)/C=C/c2cc(/C=C/C(=O)NO)n(C)c2)c1`, for which the IC50 in test [1] (read-out: IC50) was 600 nM; in test [2], 390 nM. For the same compound, in test [3], the Ratio IC50 came to 1.5.

Turning to `Cn1cc(/C=C2\CCCc3ccccc3C2=O)cc1/C=C/C(=O)NO`, the results for the IC50 in test [1] (read-out: IC50), in test [1] (read-out: pIC50 (converted)) and in test [2] were 510 nM, 1400 nM and 196 nM, respectively. In test [2], this compound yielded a negative-log IC50 (pIC50) of 6.301. In addition, in test [3], the Ratio IC50 is 2.6.

As to `C/C(=C\c1cc(/C=C/C(=O)NO)n(C)c1)C(=O)c1ccccc1`, the figures for the IC50 in test [1] (read-out: IC50) and in test [2] were 570 nM and 780 nM, respectively.

For the compound `Cn1cc(/C=C/C(=O)c2ccccc2F)cc1/C=C/C(=O)NO`, the IC50 in test [1] (read-out: IC50) was 3400 nM; in test [2], 100 nM. Besides, the Ratio IC50 in test [3] is 34.

`Cn1cc(/C=C/C(=O)c2ccc(F)cc2)cc1/C=C/C(=O)NO`: the IC50 in test [1] (read-out: IC50) is 24900 nM; in test [2], 15700 nM. The Ratio IC50 in test [3] was determined as 1.6.

In the case of `Cc1cccc(C(=O)/C=C/c2cc(/C=C/C(=O)NO)n(C)c2)c1`, the IC50 in test [1] (read-out: IC50) amounted to 2500 nM; in test [2], 170 nM. Further, in test [3], the Ratio IC50 is 14.7.

For `Cn1cc(/C=C/C(=O)c2cccc(Cl)c2Cl)cc1/C=C/C(=O)NO`, the IC50 in test [1] (read-out: IC50) is 17200 nM. In test [2], the IC50 stood at 6800 nM and the pIC50 was 6.243. Moreover, in test [3], the Ratio IC50 worked out at 2.5.
